From PubChem BioAssay (NCI) come the findings set out here.

Each structure is given as a SMILES string. Values joined by “and” are separate entries in the source; they are usually repeats but may differ in a detail not shown here. Identical values can stand only once.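 These data come from cells grown in 96-well plates and exposed to compound for 48 hours at five concentrations. GI50 is the concentration that inhibits growth by half. TGI: concentration producing complete growth inhibition.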

One test relates to A498 renal. In words: NCI anticancer screen, dose series, 48 h.
On to `CN(C)/C=C/C(=CC=[N+](C)C)/C=C/N(C)C`, for which the TGI was over 100 µM.
With `CNC1(c2cc3ccccc3s2)CCCCC1`, the TGI is over 100 µM.
`N#C[S-].[La+3].c1cnc2c(c1)ccc1cccnc12.c1cnc2c(c1)ccc1cccnc12.c1cnc2c(c1)ccc1cccnc12` showed a TGI of 13.5 µM.
Take `CNc1ncccc1Nc1cc(=O)n2c3cccnc3n(C)c2c1`: the TGI is over 100 µM.
Still for that read-out and setting: in the case of `CC1(C)C2CCC1(C)C(N/C(Sc1ccccc1)=C(/C(Cl)=C(Cl)Cl)[N+](=O)[O-])C2` (centres undefined) it was 28.2 µM.
Still for that read-out and setting: in the case of `CN(/N=C/c1ccc(C(=O)O)cc1)C1=NCCCCN1` it was over 100 µM.
Compound `C=C(C)C1CCC(C(=O)O)CC1` (centres undefined) showed a TGI of over 100 µM.
For `O=c1[nH]c2cc(C(F)(F)F)ccc2nc1C(F)(F)F`, the TGI was over 100 µM.
The compound `C=CC[C@]1(/C=N/O)CN(S(=O)(=O)CC[Si](C)(C)C)C[C@H]2CC=CC[C@H]21` displayed a TGI of 31.8 µM.
As for `CCOC(=O)Nc1cc2c(c(N)n1)N=C(c1ccc(OC)cc1)CN2`, the GI50 is 0.178 µM; the TGI was 0.645 µM and 0.972 µM.
On to `COc1ccc(-c2c(C(C)=O)c(-c3ccccc3)n(C3OC(CO)C(O)C(O)C3O)c(=S)c2C#N)cc1` (centres undefined), for which the TGI is over 100 µM.
On the same count and under the same terms, the result for `CCCCCCCC(CC(=O)NC(CO)C(=O)NC(CO)CC(C)C)OC(=O)CC(CCCCCCC)OC(=O)CC(CCCCCCC)OC1OC(C)C(O)C(OC2OC(C)C(OC(C)=O)C(O)C2O)C1O` (centres undefined) reads 23.5 µM; that for `O=C1C2=Cc3ccccc3OC2(O)Oc2cc3ccccc3cc21` (centres undefined), over 100 µM; that for `CC1(c2cccc(C3CC4(CCC3=O)OCCCCO4)c2)OCCO1` (centres undefined), over 100 µM.

The test system of a further test is OVCAR-3 ovarian. In words: NCI anticancer screen, dose series, 48 h.
On to `CC1(C)OCN(c2ccc(N3CCOCC3)cc2)Cn2c1nc1ccccc12`, for which the TGI was over 100 µM.
On to `CC1C2CC(C(S(=O)(=O)O)C2=O)C1(C)C` (centres undefined), for which the TGI was over 100 µM.
`CN(C)/C=C/C(=CC=[N+](C)C)/C=C/N(C)C` came in with a TGI of over 100 µM.
Consider `CNC1(c2cc3ccccc3s2)CCCCC1`, for which the TGI is over 100 µM.
Consider `N#C[S-].[La+3].c1cnc2c(c1)ccc1cccnc12.c1cnc2c(c1)ccc1cccnc12.c1cnc2c(c1)ccc1cccnc12`, for which the TGI was determined as 19.2 µM.
Regarding `CNc1ncccc1Nc1cc(=O)n2c3cccnc3n(C)c2c1`, the TGI is over 100 µM.
`CC1(C)C2CCC1(C)C(N/C(Sc1ccccc1)=C(/C(Cl)=C(Cl)Cl)[N+](=O)[O-])C2` (centres undefined) displayed a TGI of 17.7 µM.
`COC(=O)[C@@H]1C[C@H]2OC(=O)CC[C@]2(C)O[C@H]1[C@H]1O[C@@](C)(O)CCC[C@H]1C`: the TGI was over 50 µM.
The same measure, in the same setting: in the case of `O=S(Cc1ccccc1)c1nc2ccccc2nc1-c1cccs1` (centres undefined) it was 24 µM; in that of `CN(/N=C/c1ccc(C(=O)O)cc1)C1=NCCCCN1`, over 100 µM; in that of `C=C(C)C1CCC(C(=O)O)CC1` (centres undefined), over 100 µM.
Regarding `Cc1c(N2C(=O)C(Cl)C2/C=C/c2ccccc2)c(=O)n(-c2ccccc2)n1C` (centres undefined), the TGI was over 100 µM.
As for `O=c1[nH]c2cc(C(F)(F)F)ccc2nc1C(F)(F)F`, the TGI worked out at 58 µM.
In turn, `CCOC(=O)Nc1cc2c(c(N)n1)N=C(c1ccc(OC)cc1)CN2` gave a TGI of 0.0156 µM.
Same read-out and setting: the result for `CCN1C[C@]2(C)CC[C@H](O)C34C1C(C[C@@H]32)[C@@]1(O)CC[C@H]2C[C@@H]4[C@@H]1[C@H]2O` reads over 100 µM; that for `CCC(CC)NC1=C(NC(C)=O)C(=O)c2ccccc2C1=O`, over 50 µM.
As to `COc1ccc(-c2c(C(C)=O)c(-c3ccccc3)n(C3OC(CO)C(O)C(O)C3O)c(=S)c2C#N)cc1` (centres undefined), the TGI was over 100 µM.
The compound `CCCCCCCC(CC(=O)NC(CO)C(=O)NC(CO)CC(C)C)OC(=O)CC(CCCCCCC)OC(=O)CC(CCCCCCC)OC1OC(C)C(O)C(OC2OC(C)C(OC(C)=O)C(O)C2O)C1O` (centres undefined) came in with a TGI of 24.2 µM.
On the same count and under the same terms, in the case of `O=C1C2=Cc3ccccc3OC2(O)Oc2cc3ccccc3cc21` (centres undefined) it was over 100 µM; in that of `CC1(c2cccc(C3CC4(CCC3=O)OCCCCO4)c2)OCCO1` (centres undefined), over 100 µM.

In a further test the test system is MDA-MB-435. Put plainly: NCI anticancer screen, dose series, 48 h.
Compound `CC1C2CC(C(S(=O)(=O)O)C2=O)C1(C)C` (centres undefined) displayed a TGI of over 100 µM.
On the same count and under the same terms, the result for `CNC1(c2cc3ccccc3s2)CCCCC1` reads 36.6 µM.
For `CNc1ncccc1Nc1cc(=O)n2c3cccnc3n(C)c2c1`, the TGI was over 100 µM.
Turning to `CC1(C)C2CCC1(C)C(N/C(Sc1ccccc1)=C(/C(Cl)=C(Cl)Cl)[N+](=O)[O-])C2` (centres undefined), the TGI was found to be 25.9 µM.
`COC(=O)[C@@H]1C[C@H]2OC(=O)CC[C@]2(C)O[C@H]1[C@H]1O[C@@](C)(O)CCC[C@H]1C` gave a TGI of over 50 µM.
`CN(/N=C/c1ccc(C(=O)O)cc1)C1=NCCCCN1` came in with a TGI of over 100 µM.
In turn, `C=C(C)C1CCC(C(=O)O)CC1` (centres undefined) returned a TGI of over 100 µM.
`Cc1c(N2C(=O)C(Cl)C2/C=C/c2ccccc2)c(=O)n(-c2ccccc2)n1C` (centres undefined): the TGI worked out at 28.1 µM.
On the same count and under the same terms, in the case of `O=c1[nH]c2cc(C(F)(F)F)ccc2nc1C(F)(F)F` it was 85.2 µM.
As for `C=CC[C@]1(/C=N/O)CN(S(=O)(=O)CC[Si](C)(C)C)C[C@H]2CC=CC[C@H]21`, the TGI is over 100 µM.
Consider `CCOC(=O)Nc1cc2c(c(N)n1)N=C(c1ccc(OC)cc1)CN2`, for which the TGI was 0.000324 µM.
Consider `COc1ccc(-c2c(C(C)=O)c(-c3ccccc3)n(C3OC(CO)C(O)C(O)C3O)c(=S)c2C#N)cc1` (centres undefined), for which the TGI is over 100 µM.
`CCCCCCCC(CC(=O)NC(CO)C(=O)NC(CO)CC(C)C)OC(=O)CC(CCCCCCC)OC(=O)CC(CCCCCCC)OC1OC(C)C(O)C(OC2OC(C)C(OC(C)=O)C(O)C2O)C1O` (centres undefined): the TGI is 19.4 µM.
`O=C1C2=Cc3ccccc3OC2(O)Oc2cc3ccccc3cc21` (centres undefined) displayed a TGI of over 100 µM.

The test system of another test is TK-10 renal. Put plainly: NCI anticancer screen, dose series, 48 h.
On to `CC1(C)OCN(c2ccc(N3CCOCC3)cc2)Cn2c1nc1ccccc12`, for which the TGI is over 100 µM.
Consider `CC1C2CC(C(S(=O)(=O)O)C2=O)C1(C)C` (centres undefined), for which the TGI was over 100 µM.
`CN(C)/C=C/C(=CC=[N+](C)C)/C=C/N(C)C`: the TGI is over 100 µM.
On the same count and under the same terms, the result for `CNC1(c2cc3ccccc3s2)CCCCC1` reads over 100 µM.
Still for that read-out and setting: the result for `N#C[S-].[La+3].c1cnc2c(c1)ccc1cccnc12.c1cnc2c(c1)ccc1cccnc12.c1cnc2c(c1)ccc1cccnc12` reads 25.4 µM; that for `CNc1ncccc1Nc1cc(=O)n2c3cccnc3n(C)c2c1`, over 100 µM.
`COC(=O)[C@@H]1C[C@H]2OC(=O)CC[C@]2(C)O[C@H]1[C@H]1O[C@@](C)(O)CCC[C@H]1C`: the TGI was over 50 µM.
Still for that read-out and setting: in the case of `O=S(Cc1ccccc1)c1nc2ccccc2nc1-c1cccs1` (centres undefined) it was 28 µM; in that of `C=C(C)C1CCC(C(=O)O)CC1` (centres undefined), over 100 µM; in that of `Cc1c(N2C(=O)C(Cl)C2/C=C/c2ccccc2)c(=O)n(-c2ccccc2)n1C` (centres undefined), 37.4 µM.
In turn, `O=c1[nH]c2cc(C(F)(F)F)ccc2nc1C(F)(F)F` showed a TGI of over 100 µM.
In turn, `C=CC[C@]1(/C=N/O)CN(S(=O)(=O)CC[Si](C)(C)C)C[C@H]2CC=CC[C@H]21` gave a TGI of 36.8 µM.
Consider `CCOC(=O)Nc1cc2c(c(N)n1)N=C(c1ccc(OC)cc1)CN2`, for which the GI50 was 0.837 µM and the TGI stood at 90.1 µM.
Regarding `CCN1C[C@]2(C)CC[C@H](O)C34C1C(C[C@@H]32)[C@@]1(O)CC[C@H]2C[C@@H]4[C@@H]1[C@H]2O`, the TGI was over 100 µM.
In turn, `CCC(CC)NC1=C(NC(C)=O)C(=O)c2ccccc2C1=O` came in with a TGI of over 50 µM.
Compound `COc1ccc(-c2c(C(C)=O)c(-c3ccccc3)n(C3OC(CO)C(O)C(O)C3O)c(=S)c2C#N)cc1` (centres undefined) showed a TGI of over 100 µM.
`CCCCCCCC(CC(=O)NC(CO)C(=O)NC(CO)CC(C)C)OC(=O)CC(CCCCCCC)OC(=O)CC(CCCCCCC)OC1OC(C)C(O)C(OC2OC(C)C(OC(C)=O)C(O)C2O)C1O` (centres undefined) returned a TGI of 29.8 µM.
In the case of `O=C1C2=Cc3ccccc3OC2(O)Oc2cc3ccccc3cc21` (centres undefined), the TGI was over 100 µM.
Turning to `CC1(c2cccc(C3CC4(CCC3=O)OCCCCO4)c2)OCCO1` (centres undefined), the TGI is over 100 µM.
